# Measurements: article PMC6792352, “Limited Chemical Structural Diversity Found to Modulate Thyroid Hormone Receptor in the Tox21 Chemical Library” (Environmental Health Perspectives, 2019)
# Structures can show the parent of a compound that is named as a salt. Where two headings read alike, the source gives them in different places.
# Legend:
# in vitro = conditions: rat, gh3-tre-luc cells, AC50 (uM) modified / 1000
# GH3-TRE-Luc cell line = conditions: read-out: AC50 (uM) modified / 1000, viability, 1 nM T3 present, 24 h
compound,measurement,setting,value
CCN(CC)C(=O)c1cc(S(=O)(=O)Cc2ccccc2)c(N2CCC(c3ccccc3)CC2)cc1N(CC)CCN(C)C [HMR1171 trifluoroacetate (1:1)],CC50 at 24 h,in vitro,4.78 µM
same,CC50,GH3-TRE-Luc cell line; Tox21_110001=Tox21_113204,3.38 µM
O=c1c(O)c(-c2ccc(O)cc2)oc2cc(O)cc(O)c12 [Kaempferol],CC50 at 24 h,in vitro,66.6 µM
same,CC50,GH3-TRE-Luc cell line; Tox21_110001=Tox21_303363,50 µM
N=c1ccn2c(n1)O[C@H]1[C@H](O)[C@@H](CO)O[C@H]12 [Cyclocytidine],CC50 at 24 h,in vitro,1.45 µM
same,CC50,GH3-TRE-Luc cell line; Tox21_110001=Tox21_111571,1.18 µM
Clc1ccccc1C(c1ccccc1)(c1ccccc1)n1ccnc1 [Clotrimazole],CC50 at 24 h,in vitro,5.21 µM
same,CC50,GH3-TRE-Luc cell line; Tox21_110001=Tox21_110111,8.57 µM
O=S(=O)(O)c1cc(S(=O)(=O)O)c2c(N=Nc3ccccc3)c(O)ccc2c1 [C.I. Acid Orange 10],CC50 at 24 h,in vitro,46.4 µM
same,CC50,GH3-TRE-Luc cell line; Tox21_110001=Tox21_303019,48.6 µM
"Oc1ccc(C(c2ccc(O)cc2)C(Cl)(Cl)Cl)cc1 [2,2-Bis(4-hydroxyphenyl)-1,1,1-trichloroethane]",CC50 at 24 h,in vitro,74.8 µM
same,CC50,GH3-TRE-Luc cell line; Tox21_110001=Tox21_300656,55.1 µM
"Oc1c(Cl)cc(Cl)c(Cl)c1Cl [2,3,4,6-Tetrachlorophenol]",CC50 at 24 h,in vitro,71.8 µM
same,CC50,GH3-TRE-Luc cell line; Tox21_110001=Tox21_302932,64.3 µM
Cc1[nH]cnc1C[C@H]1CCc2c(C)c3ccccc3n2C1=O [Fabesetron],CC50 at 24 h,in vitro,33.3 µM
same,CC50,GH3-TRE-Luc cell line; Tox21_110001=Tox21_113200,23.5 µM
CN(C)c1ccc(C(=N)c2ccc(N(C)C)cc2)cc1 [Auramine hydrochloride],CC50 at 24 h,in vitro,63.2 µM
same,CC50,GH3-TRE-Luc cell line; Tox21_110001=Tox21_303002,57.6 µM
"Clc1ccc(C(c2ccccc2Cl)C(Cl)Cl)cc1 (centres unmarked) [o,p'-DDD]",CC50 at 24 h,in vitro,56.7 µM
same,CC50,GH3-TRE-Luc cell line; Tox21_110001=Tox21_110103,41.9 µM
"CCN(CCN)c1cccc(C)c1 [N-Ethyl-N-(3-methylphenyl)ethane-1,2-diamine]",CC50 at 24 h,in vitro,61.5 µM
same,CC50,GH3-TRE-Luc cell line; Tox21_110001=Tox21_303371,69.9 µM
CCCCN(CC)c1c([N+](=O)[O-])cc(C(F)(F)F)cc1[N+](=O)[O-] [Benfluralin],CC50 at 24 h,in vitro,> 90 µM
same,CC50,GH3-TRE-Luc cell line; Tox21_110001=Tox21_300774,46 µM
O=C(Nc1ccc(Cl)cc1)Nc1ccc(Cl)c(Cl)c1 [Triclocarban],CC50 at 24 h,in vitro,6.61 µM
same,CC50,GH3-TRE-Luc cell line; Tox21_110001=Tox21_112078,3.75 µM
same,CC50,GH3-TRE-Luc cell line; Tox21_110001=Tox21_300481,3.32 µM
Oc1ccc2cc(SSc3ccc4cc(O)ccc4c3)ccc2c1 [6-Hydroxy-2-naphthyl disulfide],CC50 at 24 h,in vitro,> 90 µM
same,CC50,GH3-TRE-Luc cell line; Tox21_110001=Tox21_303354,81.2 µM
CCCCCCCCCCCCc1ccccc1O [Dodecylphenol],CC50 at 24 h,in vitro,11.8 µM
same,CC50,GH3-TRE-Luc cell line; Tox21_110001=Tox21_303360,15.3 µM
CCN(CC)CCOc1ccc(C(=C(Cl)c2ccccc2)c2ccccc2)cc1 [Clomiphene],CC50 at 24 h,in vitro,6.61 µM
same,CC50,GH3-TRE-Luc cell line; Tox21_110001=Tox21_113110,7.27 µM
CCC(CC)Nc1c([N+](=O)[O-])cc(C)c(C)c1[N+](=O)[O-] [Pendimethalin],CC50 at 24 h,in vitro,76.7 µM
same,CC50,GH3-TRE-Luc cell line; Tox21_110001=Tox21_300867,> 90 µM
O=c1n(CC2CO2)c(=O)n(CC2CO2)c(=O)n1CC1CO1 (centres unmarked) [Triglycidyl isocyanurate],CC50 at 24 h,in vitro,27.2 µM
same,CC50,GH3-TRE-Luc cell line; Tox21_110001=Tox21_111097,26.2 µM
same,CC50,GH3-TRE-Luc cell line; Tox21_110001=Tox21_300119,33.9 µM
CCCCCCc1ccc(O)cc1O [4-Hexylresorcinol],CC50 at 24 h,in vitro,61 µM
same,CC50,GH3-TRE-Luc cell line; Tox21_110001=Tox21_300357,56.7 µM
CC(C)N(C(=O)SCC(Cl)=C(Cl)Cl)C(C)C [Tri-allate],CC50 at 24 h,in vitro,55.9 µM
same,CC50,GH3-TRE-Luc cell line; Tox21_110001=Tox21_300671,53.5 µM
Oc1c(I)cc(Cl)c2cccnc12 [Clioquinol],CC50 at 24 h,in vitro,43.1 µM
same,CC50,GH3-TRE-Luc cell line; Tox21_110001=Tox21_110416,43.7 µM
Cc1ccc(/N=C/N(C)/C=N/c2ccc(C)cc2C)c(C)c1 [Amitraz],CC50 at 24 h,in vitro,59 µM
same,CC50,GH3-TRE-Luc cell line; Tox21_110001=Tox21_300930,62.8 µM
"CC(C)(C)CC(C)(C)c1ccc(O)cc1 [4-(1,1,3,3-Tetramethylbutyl)phenol]",CC50 at 24 h,in vitro,35.1 µM
same,CC50,GH3-TRE-Luc cell line; Tox21_110001=Tox21_112084,22.4 µM
N#C/C(=C1/SC[C@@H](c2ccc(Cl)cc2Cl)S1)n1ccnc1 [Luliconazole],CC50 at 24 h,in vitro,> 50 µM
same,CC50,GH3-TRE-Luc cell line; Tox21_110001=Tox21_112974,40.6 µM
C=C1CC[C@H](O)C/C1=C/C=C1\CCC[C@]2(C)[C@@H]([C@H](C)/C=C/[C@H](C)C(C)C)CC[C@@H]12 [Ergocalciferol],CC50 at 24 h,in vitro,42.5 µM
same,CC50,GH3-TRE-Luc cell line; Tox21_110001=Tox21_302752,77.9 µM
CC[C@H](C)C(=O)O[C@H]1C[C@@H](C)C=C2C=C[C@H](C)[C@H](CC[C@@H]3C[C@@H](O)CC(=O)O3)[C@H]21 [Lovastatin],CC50 at 24 h,in vitro,73.4 µM
same,CC50,GH3-TRE-Luc cell line; Tox21_110001=Tox21_110888,43 µM
same,CC50,GH3-TRE-Luc cell line; Tox21_110001=Tox21_300268,67 µM
CC(=O)[C@H]1CC[C@H]2[C@@H]3CCC4=CC(=O)CC[C@]4(C)[C@H]3CC[C@]12C [Progesterone],CC50 at 24 h,in vitro,85.9 µM
same,CC50,GH3-TRE-Luc cell line; Tox21_110001=Tox21_300307,81.7 µM
O=[N+]([O-])c1ccc(Nc2ccccc2)cc1 [4-Nitro-N-phenylaniline],CC50 at 24 h,in vitro,45.4 µM
same,CC50,GH3-TRE-Luc cell line; Tox21_110001=Tox21_303333,76.1 µM
"O=[N+]([O-])c1ccc(Cl)c([N+](=O)[O-])c1 [1-Chloro-2,4-dinitrobenzene]",CC50 at 24 h,in vitro,12.5 µM
same,CC50,GH3-TRE-Luc cell line; Tox21_110001=Tox21_302802,10.1 µM
Cc1c(C)c2c(c(C)c1O)CCC(C)(COc1ccc(CC3SC(=O)NC3=O)cc1)O2 (centres unmarked) [Troglitazone],CC50 at 24 h,in vitro,54.8 µM
same,CC50,GH3-TRE-Luc cell line; Tox21_110001=Tox21_112119,41.3 µM
CCN(CC)CCSC(=O)C(c1ccccc1)c1ccccc1 [Thiphenamil],CC50 at 24 h,in vitro,41 µM
same,CC50,GH3-TRE-Luc cell line; Tox21_110001=Tox21_111676,30.2 µM
CC(C)(C)CC(C)(C)c1ccc(O)c(-n2nc3ccccc3n2)c1 [Octrizole],CC50 at 24 h,in vitro,35.4 µM
same,CC50,GH3-TRE-Luc cell line; Tox21_110001=Tox21_112086,21.6 µM
same,CC50,GH3-TRE-Luc cell line; Tox21_110001=Tox21_300498,32.7 µM
CN1CCc2cccc3c2[C@H]1Cc1ccc(O)c(O)c1-3 [Apomorphine hydrochloride hydrate],CC50 at 24 h,in vitro,48.2 µM
same,CC50,GH3-TRE-Luc cell line; Tox21_110001=Tox21_303480,26.7 µM
"CCC(C)(C)c1ccc(O)c(C(C)(C)CC)c1 [2,4-Di-tert-pentylphenol]",CC50 at 24 h,in vitro,10.5 µM
same,CC50,GH3-TRE-Luc cell line; Tox21_110001=Tox21_300090,12.2 µM
O=C(Nc1ccc([N+](=O)[O-])cc1Cl)c1cc(Cl)ccc1O [Niclosamide],CC50 at 24 h,in vitro,0.487 µM
same,CC50,GH3-TRE-Luc cell line; Tox21_110001=Tox21_110209,0.618 µM
"c1ccc2sc(SSN3CCOCC3)nc2c1 [2-(Morpholin-4-yldithio)-1,3-benzothiazole]",CC50 at 24 h,in vitro,18.6 µM
same,CC50,GH3-TRE-Luc cell line; Tox21_110001=Tox21_303278,35 µM
CC(C)Oc1cc(-n2nc(C(C)(C)C)oc2=O)c(Cl)cc1Cl [Oxadiazon],CC50 at 24 h,in vitro,50.6 µM
same,CC50,GH3-TRE-Luc cell line; Tox21_110001=Tox21_300668,74.7 µM
O=C(Nc1cccc(C(F)(F)F)c1)c1cc(Br)cc(Br)c1O [Fluorosalan],CC50 at 24 h,in vitro,2.69 µM
same,CC50,GH3-TRE-Luc cell line; Tox21_110001=Tox21_112749,3.92 µM
